In the supplement of paper PMC10307832 one finds relative viability data, which are given here for 6 cell lines.

Assay in all cases: relative viability (nuclei count vs DMSO), 5 days (fraction); higher = more cells survive
Compound in test [1]: CCC1=CN=CN=C1N2CCN(CC2)CC3=NC4=C(N3)C=C(C=C4)C(F)(F)F + Cc1cc(Nc2cc(N3CCN(C)CC3)nc(Sc3ccc(NC(=O)C4CC4)cc3)n2)n[nH]1 [Tozasertib] (partner 0.1 µM)
The essentials:
(§1)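 Relative viability was taken as the ratio of nuclei in treated wells to nuclei in vehicle wells. Lung cancer cell lines in 1536-well plates received compounds by pin tool one day after seeding, either one drug alone or a fixed anchor-drug dose plus five library-drug doses (not always all listed) in √10 steps. Nuclei were counted on 4× images after 5 days of treatment, and values are medians of duplicate plates.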

Compound in test [2]: CCn1c(-c2nonc2N)nc2cnc(Oc3cccc(NC(=O)c4ccc(OCCN5CCOCC5)cc4)c3)cc21 + C[C@]1(O)C[C@@H](c2nc(-c3ccc4ccc(-c5ccccc5)nc4c3)c3c(N)nccn32)C1 [Linsitinib] (partner 1 µM)
The essentials: as §1

Compound in the test “Mirin + Phenformin”: N=C1NC(=O)/C(=C/c2ccc(O)cc2)S1 [Mirin] + N=C(N)NC(=N)NCCc1ccccc1 [Phenformin] (partner 250 µM)
The essentials: as §1

Compound in test [3]: CCC1=CN=CN=C1N2CCN(CC2)CC3=NC4=C(N3)C=C(C=C4)C(F)(F)F + O=C(CCCCCCC(=O)Nc1ccccc1)NO [Vorinostat] (partner 1 µM)
The essentials: as §1

Take PC-3 [JPC-3]: the relative viability in test [1] (first compound 0.04 µM) is 0.883; in test [1] (first compound 0.1265 µM) it was 0.814; in test [1] (first compound 0.4 µM), 0.844; in test [1] (first compound 1.265 µM), 0.886; in test [1] (first compound 4 µM), 0.776; in test [2] (first compound 0.04 µM) it was 0.945. Also, the relative viability in test [2] (first compound 0.1265 µM) amounted to 1; in test [2] (first compound 0.4 µM), 0.969; in test [2] (first compound 1.265 µM) it was 0.968; in test [2] (first compound 4 µM), 0.947; with Mirin + Phenformin (first compound 0.25 µM), 0.462; in the test with Mirin + Phenformin (first compound 0.7906 µM), 0.48. For the same cell line, the relative viability with Mirin + Phenformin (first compound 2.5 µM) is 0.513; with Mirin + Phenformin (first compound 7.906 µM), 0.513; with Mirin + Phenformin (first compound 25 µM) it was 0.522; in test [3] (first compound 0.1265 µM), 0.737; in test [3] (first compound 0.4 µM) it was 0.738; in test [3] (first compound 1.265 µM), 0.701. The relative viability in test [3] (first compound 4 µM) was 0.885.
As for PC-14, the relative viability in test [1] (first compound 0.04 µM) is 0.599; in test [1] (first compound 0.1265 µM) it was 0.546; in test [1] (first compound 0.4 µM) it was 0.55; in test [1] (first compound 1.265 µM), 0.502; in test [1] (first compound 4 µM), 0.582; in test [2] (first compound 0.04 µM), 1. The relative viability stood at 0.901 in test [2] (first compound 0.1265 µM); 0.878 in test [2] (first compound 0.4 µM); 0.716 in test [2] (first compound 1.265 µM); 0.648 in test [2] (first compound 4 µM); 0.595 with Mirin + Phenformin (first compound 0.25 µM); 0.509 in the test with Mirin + Phenformin (first compound 0.7906 µM). The relative viability with Mirin + Phenformin (first compound 2.5 µM) worked out at 0.659; with Mirin + Phenformin (first compound 7.906 µM) it was 0.553; with Mirin + Phenformin (first compound 25 µM), 0.814; in test [3] (first compound 0.04 µM), 0.764; in test [3] (first compound 0.1265 µM), 0.756; in test [3] (first compound 0.4 µM), 0.688. Also, the results for the relative viability in test [3] (first compound 1.265 µM) and in test [3] (first compound 4 µM) were 0.691 and 0.657, respectively.
Turning to RERF-LC-KJ, the relative viability in test [1] (first compound 0.04 µM) was 0.517; in test [1] (first compound 0.1265 µM) it was 0.503; in test [1] (first compound 0.4 µM) it was 0.464; in test [1] (first compound 1.265 µM), 0.459; in test [1] (first compound 4 µM), 0.398; in test [2] (first compound 0.04 µM) it was 1.06. For the same cell line, the relative viability in test [2] (first compound 0.1265 µM) is 0.976; in test [2] (first compound 0.4 µM), 0.877; in test [2] (first compound 1.265 µM), 0.721; in test [2] (first compound 4 µM), 0.637; with Mirin + Phenformin (first compound 0.25 µM) it was 0.37; with Mirin + Phenformin (first compound 0.7906 µM), 0.543. The relative viability with Mirin + Phenformin (first compound 2.5 µM) turned out to be 0.418; with Mirin + Phenformin (first compound 7.906 µM), 0.487; with Mirin + Phenformin (first compound 25 µM), 0.461; in test [3] (first compound 0.04 µM), 0.638; in test [3] (first compound 0.1265 µM) it was 0.717; in test [3] (first compound 0.4 µM), 0.715. Further, the relative viability in test [3] (first compound 1.265 µM) was 0.634; in test [3] (first compound 4 µM) it was 0.704.
SK-LU-1: the relative viability in test [1] (first compound 0.04 µM) stood at 0.326; in test [1] (first compound 0.1265 µM) it was 0.334; in test [1] (first compound 0.4 µM) it was 0.362; in test [1] (first compound 1.265 µM), 0.335; in test [1] (first compound 4 µM), 0.274; in test [2] (first compound 0.04 µM) it was 1.17. Also, the relative viability came to 0.861 in test [2] (first compound 0.1265 µM); 0.906 in test [2] (first compound 0.4 µM); 0.439 in test [2] (first compound 1.265 µM); 0.423 in test [2] (first compound 4 µM); 0.643 with Mirin + Phenformin (first compound 0.25 µM); 0.486 in the test with Mirin + Phenformin (first compound 0.7906 µM). Moreover, the relative viability was found to be 0.522 with Mirin + Phenformin (first compound 2.5 µM); 0.497 with Mirin + Phenformin (first compound 7.906 µM); 0.44 in the test with Mirin + Phenformin (first compound 25 µM); 0.675 in test [3] (first compound 0.04 µM); 0.74 in test [3] (first compound 0.1265 µM); 0.76 in test [3] (first compound 0.4 µM). In addition, the relative viability was found to be 0.777 in test [3] (first compound 1.265 µM) and 0.68 in test [3] (first compound 4 µM).
For the cell line SK-MES-1, the relative viability in test [1] (first compound 0.04 µM) stood at 0.893; in test [1] (first compound 0.1265 µM) it was 0.872; in test [1] (first compound 0.4 µM), 0.797; in test [1] (first compound 1.265 µM) it was 0.918; in test [1] (first compound 4 µM) it was 0.865; in test [2] (first compound 0.04 µM), 1.24. In addition, the relative viability in test [2] (first compound 0.1265 µM) stood at 0.952; in test [2] (first compound 0.4 µM), 0.896; in test [2] (first compound 1.265 µM) it was 0.774; in test [2] (first compound 4 µM), 0.823; with Mirin + Phenformin (first compound 0.25 µM) it was 0.678; in the test with Mirin + Phenformin (first compound 0.7906 µM) it was 0.852. Moreover, the relative viability with Mirin + Phenformin (first compound 2.5 µM) is 0.693; in the test with Mirin + Phenformin (first compound 7.906 µM), 0.746; with Mirin + Phenformin (first compound 25 µM), 0.771; in test [3] (first compound 0.04 µM), 1.11; in test [3] (first compound 0.1265 µM), 1.04; in test [3] (first compound 0.4 µM), 1.01. Also, the relative viability in test [3] (first compound 1.265 µM) was found to be 1.03; in test [3] (first compound 4 µM) it was 1.08.
On to SW 1573, for which the relative viability in test [1] (first compound 0.04 µM) is 0.205; in test [1] (first compound 0.1265 µM), 0.214; in test [1] (first compound 0.4 µM) it was 0.181; in test [1] (first compound 1.265 µM), 0.153; in test [1] (first compound 4 µM) it was 0.203; in test [2] (first compound 0.04 µM), 0.905. The relative viability in test [2] (first compound 0.1265 µM) came to 0.744; in test [2] (first compound 0.4 µM), 0.833; in test [2] (first compound 1.265 µM), 0.479; in test [2] (first compound 4 µM) it was 0.342; with Mirin + Phenformin (first compound 0.25 µM), 0.384; with Mirin + Phenformin (first compound 0.7906 µM), 0.413. For the same cell line, the relative viability with Mirin + Phenformin (first compound 2.5 µM) was 0.378; in the test with Mirin + Phenformin (first compound 7.906 µM) it was 0.385; with Mirin + Phenformin (first compound 25 µM) it was 0.262; in test [3] (first compound 0.04 µM), 0.623; in test [3] (first compound 0.1265 µM), 1.08; in test [3] (first compound 0.4 µM), 0.756. Also, the relative viability in test [3] (first compound 1.265 µM) came to 0.575; in test [3] (first compound 4 µM) it was 0.734.
